Source: patent publication US20070128217A1 (priority 2003, published 2007)

Tests used:
[1] = tested on: rabbit serum obtained by immunizing a rabbit with the SARS-CoV strain Frankfurt 1; format: binding; set-up: Binding of a rabbit serum to linear peptides / Binding of a rabbit serum to looped peptides / Rabbit serum linear peptides / Rabbit serum looped peptides / Binding of a rabbit serum to linear peptides of protein N of SARS-CoV Urbani (Rabbit serum linear peptides) / Binding of a rabbit serum to looped/cyclic peptides of protein N of SARS-CoV Urbani (Rabbit serum looped peptides): unit not given here
[2] = tested on: control sera (pooled serum of ten healthy LUMC hospital workers; commercial negative donor pooled serum from the Dutch bloodbank); format: binding, human; set-up: Binding of Control serum LUMC to linear peptides / Binding of Control serum Blood-bank to linear peptides / Binding of Control serum LUMC to looped peptides / Binding of Control Serum Blood-Bank to Looped peptides / Binding of Control serum LUMC to linear peptides of the protein M of SARS-CoV Urbani / Binding of Control serum Blood-bank to linear peptides of the protein M of SARS-CoV Urbani / Binding of Control serum LUMC to looped peptides of the protein M of SARS-CoV Urbani / Binding of Control Serum Blood-Bank to Looped peptides of the protein M of SARS-CoV Urbani: unit not given here
[3] = tested on: antibodies in sera from SARS patients (sera 1a, 1b, 2, 6, 37, 62, London, SARS-yellow, SARS-green); format: binding, human; set-up: Binding of serum 6 to linear peptides of protein X1 of SARS-CoV Urbani / Binding of serum 37 to linear peptides of protein X1 of SARS-CoV Urbani / Binding of serum 6 to looped/cyclic peptide (PEPSCAN-ELISA) / Binding of serum 37 to looped/cyclic peptide (PEPSCAN-ELISA) / Binding of serum 37 to looped/cyclic peptides of protein X1 of SARS-CoV Urbani / Binding of serum 6 to linear peptides of protein X2 / Binding of serum 37 to linear peptides of protein X2 / Binding of serum 37 to looped/cyclic peptides of protein X2 of SARS-CoV Urbani / Binding of serum 6 to linear peptides of protein M of SARS-CoV Urbani / Binding of serum 37 to linear peptides of protein M of SARS-CoV Urbani / Binding of serum 6 to looped/cyclic peptides of protein M of SARS-CoV Urbani / Binding of serum 37 to looped/cyclic peptides of protein M of SARS-CoV Urbani / Binding of serum 6 to linear peptides of protein X3 of SARS-CoV Urbani / Binding of serum 37 to linear peptides of protein X3 of SARS-CoV Urbani / Binding of serum 37 to looped/cyclic peptides of protein X3 of SARS-CoV Urbani / Binding of serum 6 to linear peptides of protein X4 of SARS-CoV Urbani / Binding of serum 37 to linear peptides of protein X4 of SARS-CoV Urbani / Binding of serum 37 to looped/cyclic peptides of protein X4 of SARS-CoV Urbani / Binding of serum 6 to linear peptides of protein X5 of SARS-CoV Urbani / Binding of serum 37 to linear peptides of protein X5 of SARS-CoV Urbani / Binding of serum 37 to looped/cyclic peptides of protein X5 of SARS-CoV Urbani / Binding of serum 6 to linear peptides of protein N of SARS-CoV Urbani / Binding of serum 37 to linear peptides of protein N of SARS-CoV Urbani / Binding of serum 6 to linear peptide (PEPSCAN-ELISA) / Binding of serum 1a to looped/cyclic peptides of protein N of SARS-CoV Urbani / Binding of serum 1b to looped/cyclic peptides of protein N of SARS-CoV Urbani / Binding of serum 2 to looped/cyclic peptides of protein N of SARS-CoV Urbani / Binding of serum 6 to looped/cyclic peptides of protein N of SARS-CoV Urbani / Binding of serum 37 to looped/cyclic peptides of protein N of SARS-CoV Urbani / Binding of serum 62 to looped/cyclic peptides of protein N of SARS-CoV Urbani / Binding of serum London to looped/cyclic peptides of protein N of SARS-CoV Urbani / Binding of serum SARS-green to looped/cyclic peptides of protein N of SARS-CoV Urbani: unit not given here

| Sequence | Binding of a rabbit serum to linear peptides [1] | Binding of a rabbit serum to looped peptides [1] | Binding of Control Serum Blood-Bank to Looped peptides [2] | Binding of Control serum Blood-bank to linear peptides [2] | Binding of Control serum LUMC to linear peptides [2] | Binding of Control serum LUMC to looped peptides [2] | Binding of serum 1a to linear peptides of protein X2 [3] | Binding of serum 1a to looped/cyclic peptides of protein X2 of SARS-CoV Urbani [3] | Binding of serum 1b to linear peptides of protein X2 [3] | Binding of serum 1b to looped/cyclic peptides of protein X2 of SARS-CoV Urbani [3] | Binding of serum 2 to linear peptides of protein X2 [3] | Binding of serum 2 to looped/cyclic peptides of protein X2 of SARS-CoV Urbani [3] | Binding of serum 6 to linear peptides of protein X2 [3] | Binding of serum 6 to looped/cyclic peptides of protein X2 of SARS-CoV Urbani [3] | Binding of serum 37 to linear peptides of protein X2 [3] | Binding of serum 37 to looped/cyclic peptides of protein X2 of SARS-CoV Urbani [3] | Binding of serum 62 to linear peptides of protein X2 [3] | Binding of serum 62 to looped/cyclic peptides of protein X2 of SARS-CoV Urbani [3] | Binding of serum London to linear peptides of protein X2 [3] | Binding of serum London to looped/cyclic peptides of protein X2 of SARS-CoV Urbani [3] | other results |
| --- | --- | --- | --- | --- | --- | --- | --- | --- | --- | --- | --- | --- | --- | --- | --- | --- | --- | --- | --- | --- | --- |
| KLLQTLVLKMLHSSS | 0.2 | 0.4 | 0.7 | 0.7 | 0.3 | 0.6 | 0.6 | 0.5 | 0.6 | 0.5 | 0.4 | 0.3 | 0.3 | 0.5 | 0.5 | 0.4 | 0.6 | 0.6 | 0.4 | 0.4 | Binding of serum SARS-green to linear peptides of protein X2 [3]: 0.5; Binding of serum SARS-green to looped/cyclic peptides of protein X2 of SARS-CoV Urbani [3]: 0.3; Binding of serum SARS-yellow to linear peptides of protein X2 [3]: 0.4; Binding of serum SARS-yellow to looped/cyclic peptides of protein X2 of SARS-CoV Urbani [3]: 0.4 |
| KNPLLYDANYFVCWH | 0.1 | 0.7 | 0.6 | 0.4 | 0.4 | 0.7 |  |  |  |  |  |  |  |  |  |  |  |  |  |  | Binding of serum 1a to linear peptides of protein X1 of SARS-CoV Urbani [3]: 0.8; Binding of serum 1a to looped/cyclic peptide (PEPSCAN-ELISA) [3]: 0.6; Binding of serum 1b to linear peptides of protein X1 of SARS-CoV Urbani [3]: 0.5; Binding of serum 1b to looped/cyclic peptide (PEPSCAN-ELISA) [3]: 0.5; Binding of serum 2 to linear peptides of protein X1 of SARS-CoV Urbani [3]: 0.5; Binding of serum 2 to looped/cyclic peptide (PEPSCAN-ELISA) [3]: 0.4; Binding of serum 6 to linear peptides of protein X1 of SARS-CoV Urbani [3]: 0.4; Binding of serum 6 to looped/cyclic peptide (PEPSCAN-ELISA) [3]: 0.4; Binding of serum 37 to linear peptides of protein X1 of SARS-CoV Urbani [3]: 0.6; Binding of serum 37 to looped/cyclic peptide (PEPSCAN-ELISA) [3]: 0.6; Binding of serum 62 to linear peptides of protein X1 of SARS-CoV Urbani [3]: 0.5; Binding of serum 62 to looped/cyclic peptide (PEPSCAN-ELISA) [3]: 0.6; Binding of serum London to linear peptides of protein X1 of SARS-CoV Urbani [3]: 0.3; Binding of serum London to looped/cyclic peptide (PEPSCAN-ELISA) [3]: 0.2; Binding of serum SARS-green to linear peptides of protein X1 of SARS-CoV Urbani [3]: 0.4; Binding of serum SARS-green to looped/cyclic peptide (PEPSCAN-ELISA) [3]: 0.3; Binding of serum SARS-yellow to linear peptides of protein X1 of SARS-CoV Urbani [3]: 0.3; Binding of serum SARS-yellow to looped/cyclic peptide (PEPSCAN-ELISA) [3]: 0.4 |
| KTHRMCKYTQSTALQ | 0.3 | 0.3 | 0.5 | 0.6 | 0.5 | 0.4 | 0.7 | 0.4 | 0.5 | 0.4 | 0.6 | 0.2 | 0.5 | 0.4 | 0.7 | 0.2 | 0.6 | 0.4 | 0.5 | 0.2 | Binding of serum SARS-green to linear peptides of protein X2 [3]: 0.5; Binding of serum SARS-green to looped/cyclic peptides of protein X2 of SARS-CoV Urbani [3]: 0.2; Binding of serum SARS-yellow to linear peptides of protein X2 [3]: 0.8; Binding of serum SARS-yellow to looped/cyclic peptides of protein X2 of SARS-CoV Urbani [3]: 0.2 |
| KVLPFHRWHTMVQTC |  |  | 0.6 | 0.6 | 0.4 | 0.5 |  |  |  |  |  |  |  |  |  |  |  |  |  |  | Rabbit serum linear peptides [1]: 0.6; Rabbit serum looped peptides [1]: 0.5; Binding of serum 1a to linear peptides of protein X5 of SARS-CoV Urbani [3]: 0.9; Binding of serum 1a to looped/cyclic peptides of protein X5 of SARS-CoV Urbani [3]: 0.7; Binding of serum 1b to linear peptides of protein X5 of SARS-CoV Urbani [3]: 0.6; Binding of serum 1b to looped/cyclic peptides of protein X5 of SARS-CoV Urbani [3]: 0.7; Binding of serum 2 to linear peptides of protein X5 of SARS-CoV Urbani [3]: 0.7; Binding of serum 2 to looped/cyclic peptides of protein X5 of SARS-CoV Urbani [3]: 0.6; Binding of serum 6 to linear peptides of protein X5 of SARS-CoV Urbani [3]: 0.5; Binding of serum 6 to looped/cyclic peptides of protein X5 of SARS-CoV Urbani [3]: 0.7; Binding of serum 37 to linear peptides of protein X5 of SARS-CoV Urbani [3]: 0.7; Binding of serum 37 to looped/cyclic peptides of protein X5 of SARS-CoV Urbani [3]: 0.6; Binding of serum 62 to linear peptides of protein X5 of SARS-CoV Urbani [3]: 0.7; Binding of serum 62 to looped/cyclic peptides of protein X5 of SARS-CoV Urbani [3]: 0.6; Binding of serum London to linear peptides of protein X5 of SARS-CoV Urbani [3]: 1.2; Binding of serum London to looped/cyclic peptides of protein X5 of SARS-CoV Urbani [3]: 0.4; Binding of serum SARS-green to linear peptides of protein X5 of SARS-CoV Urbani [3]: 0.6; Binding of serum SARS-green to looped/cyclic peptides of protein X5 of SARS-CoV Urbani [3]: 0.4; Binding of serum SARS-yellow to linear peptides of protein X5 of SARS-CoV Urbani [3]: 0.2; Binding of serum SARS-yellow to looped/cyclic peptides of protein X5 of SARS-CoV Urbani [3]: 0.3 |
